Assay results as given in patent publication US8852917B2, “Thuricin CD, an antimicrobial for specifically targeting Clostridium difficile” (University College Cork, priority 2007, dated 2014).
Values after ≈ are worked out from the molar mass of the structure shown. “Also recorded” adds a separate entry of the source. Read-outs that look alike come from different tables or passages of the source. Values belong to the molecule of their own block, whether it stands above or below them.

Legend:
[1] = test system: C. difficile ribotypes 001, 106 and 027; experiment: Determination of minimum inhibitory concentrations; assay type: cell-based
[2] = test system: C. difficile R027 NAP1; experiment: Kill curves; assay type: cell-based
Method: The effect of thuricin against C. difficile R027 NAP1, L. monocytogenes NCTC 5348, Lb. casei 338 and B. lactis Bb12 was determined in Reinforced Clostridium Medium (RCM Merck), Brain Heart Infusion broth (Merck), MRS (de Mann-Rogosa-Sharpe) medium (Difco) and MRS containing 0.05% cystein respectively. Three independent cultures were prepared for each strain and grown overnight at 37° C. Three replicate one ml volumes of sterile double strength broth medium was prepared for each strain and inoculated with the test organisms to give initial cell numbers of 10^5-10^6/ml. Thuricin was added to give the required concentration and the volume made up to 2 ml with sterile distilled water. The bacteriocin was omitted from the control and volume substituted with sterile water. Samples were removed at intervals, serially diluted and plated on RCA, BHI agar, MRS agar or MRS agar containing 0.05% cystein depending on the strain. Plates were counted after 24 h (L. monocytogenes), or 48 h (C. difficile, Lb. casei 338 and B. lactis Bb12) incubation at 37° C.

[3] = test system: C. difficile DPC 6537 (PCR ribotype 001); experiment: Model faecal fermentation; assay type: cell-based; conditions: 500 μg thuricin added at 0, 8, and 16 hr; spiked with 10^6 cfu C. difficile ribotype 001/ml; after 16 hr incubation
Method: C. difficile DPC 6537 (PCR Ribot e 001) was taken from −80° C. stock and streaked on Fastidious Anaerobic Agar and incubated anaerobically at 37° C. On the night before the experiment ˜1 colony was inoculated into 10 ml of RCM which has been previously boiled and cooled and incubated anaerobically at 37° C.
Faecal growth medium was prepared as described by Fooks and Gibson (2003) with minor modifications as follows. The ingredients were made up to 800 ml, the pH adjusted to 6.8. One hundred and sixty ml was added to each fermentation vessel and autoclaved at 121° C. for 15 min. Prior to inoculation the faecal medium was sparged with O2-free nitrogen for ˜1 h. A 20% faecal slurry was made from a fresh faecal sample in 50 mM phosphate buffer containing 0.05% cystein which has been previously boiled and cooled just prior to use and mixed using a stomacher for no longer than 1 min. Two fermentor vessels were inoculated with 35 ml of the slurry preparation and 2 ml of the overnight culture of C. difficile. […] Samples were also taken for analysis of thuricin activity using WDA and MALDI-TOF MS.
(§1) C. difficile was enumerated on CCEY agar (LabM) and Bifidobacterium sp. on modified MRS agar containing 0.05% cystein and 50 mg mupirocin/1 after 48 h and 72 h at 37° C. incubation respectively.

[4] = test system: Bifidobacteria; experiment: Model faecal fermentation; assay type: cell-based, Bifidobacterium sp.; conditions: up to 16 hr incubation
Method: Faecal growth medium was prepared as described by Fooks and Gibson (2003) with minor modifications as follows. The ingredients were made up to 800 ml, the pH adjusted to 6.8. One hundred and sixty ml was added to each fermentation vessel and autoclaved at 121° C. for 15 min. Prior to inoculation the faecal medium was sparged with O2-free nitrogen for ˜1 h. A 20% faecal slurry was made from a fresh faecal sample in 50 mM phosphate buffer containing 0.05% cystein which has been previously boiled and cooled just prior to use and mixed using a stomacher for no longer than 1 min. Two fermentor vessels were inoculated with 35 ml of the slurry preparation and 2 ml of the overnight culture of C. difficile. To the test vessel 1 ml of 100 mg/ml thuricin was added at 0, 8 and 16 h incubation and both vessels sampled at 0, 4, 8, 12, 16, 20 and 24 h for both microbiological analyses of C. difficile and Bifidobacteria sp. Samples were also taken for analysis of thuricin activity using WDA and MALDI-TOF MS.
as §1

[5] = test system: C. difficile; experiment: Lysis of C. difficile by thuricin CD; assay type: cell-based
Method: The lytic effect of thuricin CD on C. difficile was carried out as described by Rea et at (2007).

[6] = Stability in ex vivo porcine gastric and ileal juice; assay type: in vitro ADME; conditions: 37° C., 1 mg/ml, WDA
Method: Effect of ex vivo porcine gastric and ileal juice on the stability of the thuricin CD C. difficile 64539 was grown overnight and inoculated at 1.25% into Reinforced Clostridium Agar (RCA). Purified Thuricin CD was prepared as described above. Seven ml of porcine ileal and gastric juice was centrifuged for 15 min at 12,000 rpm to remove debris. Seventy μl (1 mg/ml) of thuricin was added to 7000 μl of porcine gastric and ileum juice and incubated at 37° C. At intervals samples were taken and activity was measured using the WDA and checked for the presence of the Trn-α and Trn-β peptides using MALDI-TOF MS.

[7] = test system: bifidobacteria strains; assay type: cell-based
[8] = test system: B. lactis Bb12; assay type: cell-based
[9] = test system: L. monocytogenes NCTC 5348; assay type: cell-based
[10] = Activity over a range of pH; assay type: physicochemical
Method: (§2) Activity over a range of pH was determined in CFS by adjusting pH from 2 to 9 using either 0.5M HCl or 1M NaOH. The effect of acid or base on the target organism was determined using uninoculated broth medium adjusted through the pH range. Activity was determined using WDA assay using C. difficile ATCC 43593 as the target strain. Heat sensitivity was determined by heating the CFS for 15 min at a range of temperatures from 37° C. to 100° C.; the control was incubated at 37° C. Activity was determined using WDA with C. difficile ATCC 43593 as the target organism.

[11] = Stability in simulated gastric, ileal and colon juice; assay type: in vitro ADME; conditions: 37° C., 1 mg/ml, WDA
Method: Effect of simulated gastric, ileal and colon juice on stability of thuricin CD C. difficile 64539 was grown overnight and inoculated at 1.25% into Reinforced Clostridium Agar (RCA). Simulated gastric, ileal and colon juice were prepared as outlined by Breumer et al (1992). Purified thuricin CD was made up to 100 mg/ml in 70% IPA. Seventy μl (1 mg/ml final concentration) of thuricin was added to 7000 μl of porcine gastric and ileum juice and incubated at 37° C. At intervals samples were taken and activity was measured with the WDA using C. difficile seeded plates. The samples were also assayed for the presence of the Trn-α and Trn-β peptides using MALDI-TOF MS

[12] = Heat sensitivity; assay type: physicochemical
Method: as §2

[13] = Sensitivity to enzymatic degradation; assay type: in vitro ADME; conditions: FIG. 1; Proteinase K (6.5 mg/ml) applied to the edge of the well
Method: The cell free supernatant was tested for sensitivity to the following enzymes at a concentration of 25 mg/ml: pepsin, trypsin, peptidase, α-chymotrypsin type V111, α-chymotrypsin type 11 and proteinase K. All enzymes were purchased from Sigma. Cell free supernatants were incubated with the enzymes for 1 h at 37° C. Activity post enzyme treatment was determined using the well diffusion method using C. difficile ATCC 43593 as the target organism. Sensitivity of the antimicrobial to Proteinase K was also determined by applying 5 μl of Proteinase K (6.5 mg/ml) to the edge of the well containing the sample.

[14] = test system: Lb. casei 338; assay type: cell-based
[15] = test system: Gram negative organisms; assay type: cell-based; conditions: WDA
Method: B. thuringiensis DPC 6431 was grown aerobically from stock for ˜6 h in BHI broth and sub-cultured into fresh BHI at 0.1% for 18 h in BHI. Following growth, the culture was centrifuged twice at 8200 g for 10 min. Activity was determined using the well diffusion assay (WDA) as described by Ryan et al., (1996). Activity against a range of target organisms was determined by WDA. Cultures were grown over-night in various broth media and temperatures as outlined in Table 1. Twenty ml of the appropriate agar medium was inoculated with 100 μl of target organism and, once solidified, 50 μl of the cell free supernatant (CFS) of B. thuringiensis DPC 6431 was added to a well made in the agar. Plates were incubated under conditions appropriate for the various target organisms as outlined in Table 1. Zones of inhibition (mm) were measured and relative sensitivity determined by measuring the diameter of the zone. Zones of size ≦9 mm were designated +; of 10-15 mm were designated ++; of 16-21 mm were designated +++; of ≧22 mm were designated ++++;

[16] = test system: Lactobacillus and Bifidobacterium populations; conditions: simple faecal fermentations; concentrations required to kill C. difficile; cited from earlier work
[17] = C. difficile ribotype 001, 16 h at 37° C. anaerobically, read-out: MIC
[18] = C. difficile ribotype 106, 16 h at 37° C. anaerobically, read-out: MIC

MIC ([1]; Clostridioides difficile, 16 h, C. difficile ribotype 001, 16 h at 37° C. anaerobically, read-out: MIC): 3.12 µM (≈ 0.535 µg/mL) | MIC ([1]; Clostridioides difficile, 16 h, C. difficile ribotype 027, 16 h at 37° C. anaerobically, read-out: MIC): 3.12 µM (≈ 0.535 µg/mL) | MIC ([1]; Clostridioides difficile, 16 h, C. difficile ribotype 106, 16 h at 37° C. anaerobically, read-out: MIC): 1.56 µM (≈ 0.267 µg/mL)
Molecule: Cc1ncc([N+](=O)[O-])n1CCO [Metronidazole, metronidazole]

Molecule: CN[C@H](CC(C)C)C(=O)N[C@H]1C(=O)N[C@@H](CC(N)=O)C(=O)N[C@H]2C(=O)N[C@H]3C(=O)N[C@H](C(=O)N[C@H](C(=O)O)c4cc(O)cc(O)c4-c4cc3ccc4O)[C@H](O)c3ccc(c(Cl)c3)Oc3cc2cc(c3O[C@@H]2O[C@H](CO)[C@@H](O)[C@H](O)[C@H]2O[C@H]2C[C@](C)(N)[C@H](O)[C@H](C)O2)Oc2ccc(cc2Cl)[C@H]1O [Vancomycin, vancomycin]
MIC [1, 17]: 0.39 µM (≈ 0.565 µg/mL) | MIC [1, 18]: 0.39 µM (≈ 0.565 µg/mL) | MIC ([1]; Clostridioides difficile, 16 h): 0.39 µM (≈ 0.565 µg/mL)

Molecule: Thuricin CD
Time within which approximately 5×10^6 CFU of C. difficile per ml are killed ([2]; 5 μM): ≤ 60 minutes | Time to reduce viable cells from ˜10^6/ml to zero ([2]; 200 AU thuricin/ml, C. difficile PCR ribotype 027): ≤ 2 h | Time within which approximately 5×10^6 CFU of C. difficile per ml are killed ([2]; 200 AU/ml): ≤ 180 minutes | Time within which ˜5×10^6 cfu of C. difficile per ml were killed ([2]; 200 AU/ml): ≤ 180 min | MIC [1, 17]: 0.097 µM | MIC ([1]; C. difficile ribotype 027, 16 h at 37° C. anaerobically, read-out: MIC): 0.012 µM | MIC [1, 18]: 0.125 µM | Reduction of C. difficile compared with the control [3]: over 1000 fold | Effect on numbers of Bifidobacteria relative to control [4]: did not affect | Effect on OD600 nm of logarithmically growing C. difficile [5]: gradual reduction of OD600 nm | Acetate kinase in the growth medium (lysis) ([5]; logarithmically growing C. difficile): release of the intracellular enzyme acetate kinase | Activity after incubation in ex vivo porcine gastric juice ([6]; 2 hr): no reduction in activity | Activity after incubation in ex vivo porcine ileal juice ([6]; 5 hr): no reduction in activity | Sensitivity of bifidobacteria strains tested [7]: No bifidobacteria strains tested were sensitive | Effect on viability of B. lactis BB12 [8]: no effect; also recorded: did not affect | Reduction of cell numbers of L. monocytogenes [9]: 1.5 log cycles | pH range in which active [10]: 2-10 | Activity after incubation in simulated gastric juice ([11]; 2 hours): no reduction of activity | Activity after incubation in simulated ileal juice ([11]; 4 hours): no reduction of activity | Activity after incubation in simulated colon juice ([11]; 9 hours): no reduction of activity | Activity after heating at 90° C. [12]: reduction of activity | Activity after heating at 100° C. [12]: loss of activity | Temperature up to which heat stable / activity retained [12]: up to 95 °C | Temperature up to which heat-stable [12]: about 85 ° Centigrade | Activity on treatment with Proteinase K [13]: lost | Effect on viability of Lb. casei 338 [14]: no effect; also recorded: did not affect | Activity against Gram negative organisms tested [15]: no activity

Molecule: lacticin 3147
Effect on Lactobacillus and Bifidobacterium populations [16]: 3 log cycles
